In US9173882B2, “Polycyclic heteroaryl substituted triazoles useful as Axl inhibitors” (Rigel Pharmaceuticals, Inc., priority 2008, dated 2015):

Molecular target: T1, Axl (Homo sapiens, UniProt P30530)
T1 construct: endogenous in cells; host or cells: HeLa cells
T1 sequence (P30530 26-894): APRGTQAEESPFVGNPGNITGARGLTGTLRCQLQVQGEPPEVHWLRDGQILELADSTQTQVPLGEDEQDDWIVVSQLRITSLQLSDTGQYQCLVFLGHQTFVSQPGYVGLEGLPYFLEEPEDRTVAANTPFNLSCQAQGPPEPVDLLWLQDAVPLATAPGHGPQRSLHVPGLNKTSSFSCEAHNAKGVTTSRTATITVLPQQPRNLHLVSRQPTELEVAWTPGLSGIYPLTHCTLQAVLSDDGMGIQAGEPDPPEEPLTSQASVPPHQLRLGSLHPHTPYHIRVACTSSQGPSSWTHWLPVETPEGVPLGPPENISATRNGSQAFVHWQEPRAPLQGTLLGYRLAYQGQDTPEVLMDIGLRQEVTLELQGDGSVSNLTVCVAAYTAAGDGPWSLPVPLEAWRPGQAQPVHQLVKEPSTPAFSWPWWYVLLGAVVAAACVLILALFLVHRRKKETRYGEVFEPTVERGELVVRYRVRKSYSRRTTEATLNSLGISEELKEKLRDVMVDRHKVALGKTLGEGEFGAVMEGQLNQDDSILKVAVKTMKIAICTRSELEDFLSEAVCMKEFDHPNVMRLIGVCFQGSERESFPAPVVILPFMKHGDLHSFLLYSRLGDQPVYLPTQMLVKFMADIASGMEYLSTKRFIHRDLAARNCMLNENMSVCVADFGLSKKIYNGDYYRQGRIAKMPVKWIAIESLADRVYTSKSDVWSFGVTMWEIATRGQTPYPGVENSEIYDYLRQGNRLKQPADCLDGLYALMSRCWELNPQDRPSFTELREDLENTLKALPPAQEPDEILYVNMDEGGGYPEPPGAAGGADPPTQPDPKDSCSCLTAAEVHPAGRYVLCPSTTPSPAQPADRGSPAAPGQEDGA
Experiment: Phospho-Akt in-cell Western assay
Format: cell-based
Conditions: Hela cells, stimulated by Axl-antibody cross-linking, phospho-Akt chemiluminescence
Description: Phospho-Akt in-Cell Western Assay
The compounds of the invention were tested in the following assay for their ability to inhibit Axl activity.
• Cell culture plate: 96 well assay plate (Corning 3610), white, clear bottom, tissue-culture treated. • Cells: Hela cells. • Starvation medium: For Axl stimulation: 0.5% FCS (fetal calf serum) in DMEM, plus Axl/Fc (extracellular domain of AXL fused to imunoglobulin Fc region) (R&D, 154-AL) 500 ng/mL. • For EGF (epidermal growth factor) stimulation: 0.5% FCS in DMEM (Dulbecco's modified Eagles medium). • Poly-L-Lysine 0.01% solution (the working solution): 10 μg/ml, dilute In PBS (phosphate buffered saline). • Axl antibody cross-linking: • 1st: Mouse anti-Axl (R&D, MAB154). • 2nd: Biotin-SP-conjugated AffiniPure goat anti-mouse IgG (H+L) (Jackson ImmunoResearch #115-065-003). • Fixing buffer: 4% formaldehyde in PBS. • Wash buffer: 0.1% TritonX-100 in PBS. • Quenching buffer: 3% H2O2, 0.1% Azide in wash buffer, Azide and hydrogen peroxide (H2O2) are added fresh. • Blocking buffer: 5% BSA in TBST (tris buffered saline plus 0.1% Tween 20). • Primary antibody: Rabbit anti-human Phospho-Akt antibody (Cell Signaling 9271): 1×250 diluted in blocking buffer. • Secondary antibody: HRP (horse radish peroxidase)-conjugated Goat anti-Rabbit secondary, stock solution: Jackson ImmunoResearch (Goat anti-Rabbit HRP, #111-035-144) 1:1 diluted in glycerol, store at −20° C. The working solution: 1×2000 dilution of stock in blocking buffer. • Chemiluminescent working solution (Pierce, 37030): SuperSignal ELISA (enzyme linked immunosorbant assay) Pico Chemiluminescent substrate. • Crystal Violet solution: Stock: 2.5% Crystal violet in methanol, filtered and kept at ambient temperature. The working solution: dilute the stock 1:20 with PBS immediately before use. • 10% SDS: working solution: 5% SDS (sodium dodecylsulfate), diluted in PBS Methods: Day 1:
A 96 well TC (tissue culture treated) plate was coated with 10 μg/mL poly-L-Lysine at 37° C. for 30 min, washed twice with PBS, and air-dried for 5 minutes before cells were added. Hela cells were seeded at 10,000 cells/well and the cells were starved in 100 μL starvation medium containing Axl/Fc for 24 hrs.
The cells were pre-treated with test compounds by adding 100 μL of 2× test compound to the starvation medium on the cells. The cells were incubated at 37° C. for 1 hr before stimulation.
The cells were stimulated by Axl-antibody cross-linking as follows: A 5× 1st/2nd Axl antibody mixture was made (37.5 μg/mL 1st/100 μg/mL 2nd) in starvation medium and nutated at 4° C. with thorough mixing for 1-2 hours for clustering. The resulting mix was warmed to 37° C. 50 μL of 5× Axl 1st/2nd of antibody cluster was added to the cells and the cells were incubated at 37° C. for 5 min.
After 5 minutes stimulation, the plate was flicked to remove medium and the plate was tapped onto paper towels. Formaldehyde (4.0% in PBS, 100 μL) was added to fix the cells and the cells were incubated at ambient temperature for 20 min without shaking.
The cells were washed with a plate washer buffer to remove the formaldehyde solution. The plate was flicked to removed excess wash buffer and tapped onto paper towels. Quenching buffer (100 μL) was added to each well and the cells were incubated at ambient temperature for 20 minutes without shaking.
The cells were washed with a plate washer buffer to remove the quenching buffer. Blocking buffer (100 μL) was added and the cells were incubated at ambient temperature for at least an hour with gentle shaking.
The cells were washed with a plate washer buffer and diluted primary antibody (50 μL) was added to each well (blocking buffer was added to the negative control wells instead). The plates were incubated overnight at 4° C. with gentle shaking.
The wash buffer was removed, diluted secondary antibody (100 μL) was added, and the cells were incubated at ambient temperature for 1 hour with gentle shaking. […]

Structure (SMILES)	IC50 (Table 1, formula (Ia)) [nM]	IC50 (Table 2, formula (Ib)) [nM]
Nc1nc(Nc2ccc3c(c2)CCC(N2CCN(CC(=O)O)CC2)CC3)nn1-c1cc2c(nn1)-c1ccccc1CCC2 (stereo not drawn) [Compound 10, 1-(6,7-dihydro-5H-benzo[6,7]cyclohepta[1,2-c]pyridazin-3-yl)-N^3-(7-(4-(carboxymethyl)piperazin-1-yl)-6,7,8,9-tetrahydro-5H-benzo[7]annulene-2-yl)-1H-1,2,4-triazole-3,5-diamine]	1000 to 10000	–
Nc1nc(Nc2cccc3c2CCC(N2CCCC2)CC3)nn1-c1cc2c(nn1)-c1ccccc1CCC2 (stereo not drawn) [Compound 11, 1-(6,7-dihydro-5H-benzo[6,7]cyclohepta[1,2-c]pyridazin-3-yl)-N^3-(7-(pyrrolidin-1-yl)-6,7,8,9-tetrahydro-5H-benzo[7]annulene-1-yl)-1H-1,2,4-triazole-3,5-diamine]	> 20000	–
Nc1nc(Nc2cccc3c2CCC(N2CCCC2)CC3)n(-c2cc3c(nn2)-c2ccccc2CCC3)n1 (stereo not drawn) [Compound 12, 1-(6,7-dihydro-5H-benzo[6,7]cyclohepta[1,2-c]pyridazin-3-yl)-N^5-(7-(pyrrolidin-1-yl)-6,7,8,9-tetrahydro-5H-benzo[7]annulene-1-yl)-1H-1,2,4-triazole-3,5-diamine]	–	< 1000
CC(C)(C)OC(=O)N[C@H]1CCc2ccc(Nc3nc(N)n(-c4cc5c(nn4)-c4ccccc4CCC5)n3)cc2CC1 [Compound 13, 1-(6,7-dihydro-5H-benzo[6,7]cyclohepta[1,2-c]pyridazin-3-yl)-N^3-((7S)-7-(t-butoxycarbonylamino)-6,7,8,9-tetrahydro-5H-benzo[7]annulene-2-yl)-1H-1,2,4-triazole-3,5-diamine]	> 20000	–
CC(C)(C)OC(=O)N[C@H]1CCc2ccc(Nc3nc(N)nn3-c3cc4c(nn3)-c3ccccc3CCC4)cc2CC1 [Compound 14, 1-(6,7-dihydro-5H-benzo[6,7]cyclohepta[1,2-c]pyridazin-3-yl)-N^5-((7S)-7-(t-butoxycarbonylamino)-6,7,8,9-tetrahydro-5H-benzo[7]annulene-2-yl)-1H-1,2,4-triazole-3,5-diamine]	–	> 20000
Nc1nc(Nc2ccc3c(c2)CC[C@@H](N)CC3)nn1-c1cc2c(nn1)-c1ccccc1CCC2 [Compound 15, 1-(6,7-dihydro-5H-benzo[6,7]cyclohepta[1,2-c]pyridazin-3-yl)-N^3-((7S)-7-amino-6,7,8,9-tetrahydro-5H-benzo[7]annulene-2-yl)-1H-1,2,4-triazole-3,5-diamine]	1000 to 10000	–
Nc1nc(Nc2ccc3c(c2)CC[C@@H](N(CC2CC2)CC2CC2)CC3)nn1-c1cc2c(nn1)-c1ccccc1CCC2 [Compound 16, 1-(6,7-dihydro-5H-benzo[6,7]cyclohepta[1,2-c]pyridazin-3-yl)-N^3-((7s)-7-(di(cyclopropylmethyl)amino)-6,7,8,9-tetrahydro-5H-benzo[7]annulene-2-yl)-1H-1,2,4-triazole-3,5-diamine]	< 1000	–
CC(C)CN[C@H]1CCc2ccc(Nc3nc(N)n(-c4cc5c(nn4)-c4ccccc4CCC5)n3)cc2CC1 [Compound 17, 1-(6,7-dihydro-5H-benzo[6,7]cyclohepta[1,2-c]pyridazin-3-yl)-N^3-((7S)-7-((2-methylpropyl)amino)-6,7,8,9-tetrahydro-5H-benzo[7]annulene-2-yl)-1H-1,2,4-triazole-3,5-diamine]	< 1000	–
CCCN[C@H]1CCc2ccc(Nc3nc(N)n(-c4cc5c(nn4)-c4ccccc4CCC5)n3)cc2CC1 [Compound 18, 1-(6,7-dihydro-5H-benzo[6,7]cyclohepta[1,2-c]pyridazin-3-yl)-N^3-((7S)-7-((propyl)amino)-6,7,8,9-tetrahydro-5H-benzo[7]annulene-2-yl)-1H-1,2,4-triazole-3,5-diamine]	< 1000	–
CCCN(CCC)[C@H]1CCc2ccc(Nc3nc(N)n(-c4cc5c(nn4)-c4ccccc4CCC5)n3)cc2CC1 [Compound 19, 1-(6,7-dihydro-5H-benzo[6,7]cyclohepta[1,2-c]pyridazin-3-yl)-N^3-((7S)-7-(dipropylamino)-6,7,8,9-tetrahydro-5H-benzo[7]annulene-2-yl)-1H-1,2,4-triazole-3,5-diamine]	< 1000	–
CCN(CC)[C@H]1CCc2ccc(Nc3nc(N)n(-c4cc5c(nn4)-c4ccccc4CCC5)n3)cc2CC1 [Compound 20, 1-(6,7-dihydro-5H-benzo[6,7]cyclohepta[1,2-c]pyridazin-3-yl)-N^3-((7S)-7-(diethylamino)-6,7,8,9-tetrahydro-5H-benzo[7]annulene-2-yl)-1H-1,2,4-triazole-3,5-diamine]	< 1000	–
Nc1nc(Nc2ccc3c(c2)CC[C@@H](NC2CCCCC2)CC3)nn1-c1cc2c(nn1)-c1ccccc1CCC2 [Compound 21, 1-(6,7-dihydro-5H-benzo[6,7]cyclohepta[1,2-c]pyridazin-3-yl)-N^3-((7S)-7-(cyclohexylamino)-6,7,8,9-tetrahydro-5H-benzo[7]annulene-2-yl)-1H-1,2,4-triazole-3,5-diamine]	< 1000	–
Nc1nc(Nc2ccc3c(c2)CC[C@@H](NC2CCCC2)CC3)nn1-c1cc2c(nn1)-c1ccccc1CCC2 [Compound 22, 1-(6,7-dihydro-5H-benzo[6,7]cyclohepta[1,2-c]pyridazin-3-yl)-N^3-((7S)-7-(cyclopentylamino)-6,7,8,9-tetrahydro-5H-benzo[7]annulene-2-yl)-1H-1,2,4-triazole-3,5-diamine]	< 1000	–
CC(C)N[C@H]1CCc2ccc(Nc3nc(N)n(-c4cc5c(nn4)-c4ccccc4CCC5)n3)cc2CC1 [Compound 24, 1-(6,7-dihydro-5H-benzo[6,7]cyclohepta[1,2-c]pyridazin-3-yl)-N^3-((7S)-7-(2-propylamino)-6,7,8,9-tetrahydro-5H-benzo[7]annulene-2-yl)-1H-1,2,4-triazole-3,5-diamine]	< 1000	–
CC(N[C@H]1CCc2ccc(Nc3nc(N)n(-c4cc5c(nn4)-c4ccccc4CCC5)n3)cc2CC1)C(C)(C)C (stereo partly drawn) [Compound 25, 1-(6,7-dihydro-5H-benzo[6,7]cyclohepta[1,2-c]pyridazin-3-yl)-N^3-((7S)-7-((3,3-dimethylbut-2-yl)amino)-6,7,8,9-tetrahydro-5H-benzo[7]annulene-2-yl)-1H-1,2,4-triazole-3,5-diamine]	1000 to 10000	–
